Source: patent US20260027066A1, “NANOSCALE MATRIMERES” (THE BOARD OF TRUSTEES OF THE UNIVERSITY OF ILLINOIS, priority 2022, published 2026)

Tests used:
[1] = tested on: FN^+ matrimeres secreted from MSCs; experiment: Effects of pharmacological modulators on FN+ matrimere secretion from MSCs; assay type: cell-based, mouse; conditions: 24 hours in culture with drug vs DMSO control
Method: FIGS. 6A-6C show the effects of pharmacological modulators on FN^+ matrimere secretion. (FIG. 6A) Overview of the potential biogenesis pathway for FN^+ matrimeres, known regulators, and their pharmacological modulators. (FIG. 6B) Total number of nanostructures per MSC after 24 hours in culture with drugs or DMSO control. (FIG. 6C) Percent of FN^+ particles in MSC-secreted nanostructures. (FIG. 6D) Total number of FN^+ particles per cell. *p<0.05. n=3 experiments. p-values from one-way ANOVA followed by Tukey's post-test. All data are shown as mean±s.d. BMS-P5 (CAS No. 1550371-22-6); Bafilomycin-A1 (BafA1, CAS No. 88899-55-2); curcumin analog C1 (CA-C1, CAS No. 39777-61-2); ML-SA5 (CAS No. 2418670-70-7).
For excess DNA to be released from the nucleus, arginine in histone undergoes modification from positive to neutral charge via citrullination, which is mediated by peptidylarginine deiminase (PAD) (FIG. 6A). […] Most cells (>90%) remained viable after drug treatment. Thus, autophagy and lysosome are potential mediators of FN^+ matrimere biogenesis.

[2] = tested on: human umbilical vein endothelial cell (HUVEC) monolayer; experiment: Transendothelial electrical resistance (TEER) assay of endothelial monolayer after LPS treatment; assay type: cell-based; conditions: cilengitide 200 nM
Method: (FIG. 3A) TEER kinetics of the human umbilical vein endothelial cell (HUVEC) monolayer showing the rescue of LPS (1 μM)—compromised TEER by the CD63-depleted fraction of MSC-secreted nanostructures. (FIG. 3B) Changes in TEER from 6.5 hours to 24 hours after washing out LPS followed by treatment. ****p<0.0001. n=3 experiments. p-values were derived from one-way ANOVA followed by Dunnett's T3 post-test. All data are shown as mean±s.d.
FIG. 8A-8B show the effects of reconstituted FN-DNA matrimeres on the recovery of TEER after 6 hours LPS (1 μM) treatment in vitro. (FIG. 8A) TEER kinetics. (FIG. 8B) Percentage of TEER recovery. n=3 experiments.
The effect of depleting different mouse MSC-secreted nanostructure subpopulations on their ability to reverse hyperpermeability of the endothelial cell monolayer after LPS treatment in vitro was assessed by a transendothelial electrical resistance (TEER) assay. TEER was decreased with LPS over 6 hours, while TEER was only partially rescued after washing out LPS in 24 hours. […] Competitive inhibition of RGD-binding integrins by cilengitide (cyclic RGD, 200 nM) impaired the ability of CD63-depleted fraction to restore TEER (FIG. 3B). […]
It was subsequently determined whether in vitro reconstituted FN-DNA particles could restore permeability of the endothelial cell monolayer after LPS treatment. […]

Row | Structure (SMILES) | FN^+ matrimeres secreted from MSCs [1] | FN^+ particle number per cell [1] | other results
1 | COc1cc(C(=O)N2C[C@H](N)CC[C@@H]2C)cc2nc(-c3cc4cccnc4n3CC3CC3)n(C)c12 [BMS-P5] | decreased |  | 
2 | CN(C)S(=O)(=O)c1ccc(S(=O)(=O)Nc2cccc(Cl)c2N2CCCCC2)cc1 [ML-SA5, N′-[3-Chloro-2-(1-piperidinyl)phenyl]-N,N-dimethyl-1,4-benzenedisulfonamide] |  | significantly increased | 
3 | CO/C1=C\C(C)=C\[C@@H](C)[C@@H](O)[C@@H](C)C/C(C)=C/C=C/[C@H](OC)[C@@H]([C@@H](C)[C@@H](O)[C@H](C)[C@@]2(O)C[C@@H](O)[C@H](C)[C@@H](C(C)C)O2)OC1=O [bafilomycin-A1] | decreased |  | 
4 | CC(C)[C@H]1C(=O)N[C@@H](CCCN=C(N)N)C(=O)NCC(=O)N[C@@H](CC(=O)O)C(=O)N[C@H](Cc2ccccc2)C(=O)N1C [cilengitide] |  |  | effect on ability of reconstituted FN-DNA particles to restore TEER [2]: partially impaired; effect on ability of CD63-depleted fraction to restore TEER ([2]; competitive inhibition of RGD-binding integrins): impaired
5 | COc1ccccc1/C=C/C(=O)/C=C/c1ccccc1OC [curcumin analog C1, (1E,4E)-1,5-bis(2-methoxyphenyl)-1,4-pentadien-3-one] |  | significantly increased | 
